Test results from PMC8404199, “Structure–Activity Relationships of Triple-Action Platinum(IV) Prodrugs with Albumin-Binding Properties and Immunomodulating Ligands” (Journal of Medicinal Chemistry, 2021).
Read-outs that look alike come from different tables or passages of the source.

What was measured:
human SKOV3 cancer cells = experiment: MTT cytotoxicity assay in SKOV3 cells; assay type: cell-based; details: 72 h incubation
Method: (§1) The cells were seeded at 3500–6000 cells/well in 96-well plates depending on the proliferation rate of the respective cell line and allowed to recover for 24 h. Subsequently, the cells were treated at indicated concentrations for 48 or 72 h. Cells were additionally incubated with 5-fold equimolar concentrations of ascorbic acid to increase the reduction rate of the compounds. Cell viability was measured by the MTT-based vitality assay (EZ4U; Biomedica, Vienna, Austria), following the manufacturer’s recommendations.

albumin = biological target: T1, albumin (Bos taurus, UniProt P02769); experiment: SEC-ICP-MS albumin binding and serum stability in fetal calf serum; assay type: in vitro ADME; details: FCS + 150 mM phosphate buffer pH 7.4, 37 °C
T1 construct: FCS was purchased from Sigma-Aldrich and buffered with 150 mM phosphate buffer (pH 7.4); tissue Sigma-Aldrich; host or cells: fetal calf serum
T1 sequence (P02769 25-607): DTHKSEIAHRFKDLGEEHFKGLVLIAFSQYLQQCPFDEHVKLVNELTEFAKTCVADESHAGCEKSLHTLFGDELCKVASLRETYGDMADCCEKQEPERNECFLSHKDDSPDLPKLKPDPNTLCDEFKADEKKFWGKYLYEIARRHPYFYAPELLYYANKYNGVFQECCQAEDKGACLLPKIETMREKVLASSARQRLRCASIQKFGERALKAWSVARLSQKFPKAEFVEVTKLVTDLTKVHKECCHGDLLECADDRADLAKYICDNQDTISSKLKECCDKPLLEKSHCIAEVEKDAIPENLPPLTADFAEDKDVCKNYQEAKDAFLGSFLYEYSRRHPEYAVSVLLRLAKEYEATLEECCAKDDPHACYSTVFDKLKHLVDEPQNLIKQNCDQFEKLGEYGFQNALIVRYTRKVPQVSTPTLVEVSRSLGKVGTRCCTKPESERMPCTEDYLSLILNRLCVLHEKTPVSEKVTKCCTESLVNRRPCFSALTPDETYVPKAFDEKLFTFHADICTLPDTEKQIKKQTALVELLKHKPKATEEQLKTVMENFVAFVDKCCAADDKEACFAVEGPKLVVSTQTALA
Method: FCS was purchased from Sigma-Aldrich and buffered with 150 mM phosphate buffer (pH 7.4) to guarantee a stable pH. The maleimide-bearing platinum(IV) complexes were dissolved in 10% DMF in 150 mM phosphate buffer (pH 7.4) to 1 mM and diluted 1:10 in serum to obtain a final concentration of 100 μM. The samples were then incubated in the autosampler at 37 °C for 24 h and analyzed every 1 h. Between each sample, a pure water blank was measured. For SEC–ICP–MS measurements, an Agilent 1260 Infinity system coupled to an Agilent 7800 ICP–MS equipped with a dynamic reaction cell was used. Oxygen (purity 5.5, Messer Austria GmbH, Gumpoldskirchen, Austria) was used as reaction gas.

[1] = system: VM7 melanoma cancer cells; experiment: MTT cytotoxicity assay in VM7 cells; assay type: cell-based, human; details: 72 h
Method: as §1

[2] = system: murine CT26 colon cancer cells; experiment: MTT cytotoxicity assay in CT26 cells; assay type: cell-based
Method: (§2) Cells were additionally incubated with 5-fold equimolar concentrations of ascorbic acid to increase the reduction rate of the compounds. Cell viability was measured by the MTT-based vitality assay (EZ4U; Biomedica, Vienna, Austria), following the manufacturer’s recommendations.

[3] = system: human HCT116 colon cancer cells; experiment: MTT cytotoxicity assay in HCT116 cells; assay type: cell-based
Method: as §2

[4] = system: human embryonic kidney cells (HEK293); experiment: MTT cytotoxicity assay in non-malignant HEK293 cells; assay type: cell-based; details: 72 h
Method: as §1

[5] = UHPLC reduction experiments with L-ascorbic acid; assay type: physicochemical; details: 1 mM complex, 10-fold excess AA, phosphate buffer pH 7.4, 1% DMF, 20 °C
Method: The platinum(IV)–succinimide complexes were dissolved in 2% DMF in phosphate buffer (500 mM, pH 7.4) to a final concentration of 2 mM. The solutions were then mixed 1:1 with a 20 mM stock of L-ascorbic acid in phosphate buffer (500 mM, pH 7.4) to obtain final concentrations of 1 mM complex, 10 mM L-ascorbic acid, and 1% DMF. The samples were incubated at 20 °C and measured on a Dionex UltiMate 3000 RS UPLC system with a Waters Acquity UPLC BEH C18 column (3 × 50 mm, pore size 1.7 μm) and absorption detection at 220 nm. Data points were taken at t = 0 and every 30 min for 6 h.

SKOV3 cell lysates = experiment: Reduction and 1-MDT release in SKOV3 lysates; assay type: in vitro ADME, human; details: 100 μM, 37 °C
Method: SKOV3 cells were grown in four T225 […] cell culture flasks to reach a high cell number. On the day of cell lysate isolation, cells were washed with PBS, scraped from the surface, and centrifuged. Each cell pellet was lysed in ∼160 μL lysis buffer (15 mM NaCl 0.5% Triton X, ultrapure) and incubated on ice for 1 h. The samples were then centrifuged for 15 min at 14,000 rpm (4 °C), and the cleared lysate was pooled and kept at −80 °C until analysis. Cell lysates were treated with 2 mM stock solutions of respective complexes in 4% DMF and phosphate buffer (100 mM, pH 7.4) to obtain a final compound concentration of 100 μM and incubated at 37 °C. After 0, 4, 24, and 72 h, three volume equivalents of cold MeOH were added to sample aliquots. Samples were stored at 4 °C for 10 min and centrifuged (15,080g, 4 °C, 10 min). LC–MS analysis of the supernatant was performed on an Agilent 1260 Infinity system using a Waters Atlantis T3 column (150 mm × 4.6 mm) and absorption detection at 230 nm, coupled to a Bruker amaZon SL ESI-IT mass spectrometer. Milli-Q water, containing 0.1% formic acid, and acetonitrile, containing 0.1% formic acid, were used as eluents. A gradient of 1–99% acetonitrile in 20 min was used.

[6] = system: human hepatic cell line (WRL68); experiment: MTT cytotoxicity assay in non-malignant WRL68 cells; assay type: cell-based; details: 72 h
Method: as §1

SKOV3 cancer cells = experiment: Long-term cytotoxicity assay (crystal violet) in SKOV3 cells; assay type: cell-based, human; details: 168 h, crystal violet stain, mean ± SD
Method: SKOV3 cells were seeded in duplicates at 5000 cells/well in 24-well plates and allowed to recover for 24 h. Subsequently, the cells were treated at the indicated concentrations for 168 h. Cells were fixed with ice-cold methanol (20 min at 4 °C), washed with PBS, and stained with crystal violet. Subsequently, colony formation was inspected, and the fluorescence signal was detected using Typhoon Trio imager (GE Healthcare, Little Chalfont, UK) at 610/30 nm BP and analyzed by ImageJ software.

[7] = log D7.4 determination by shake flask method and ICP-MS; assay type: physicochemical; details: n-octanol/phosphate buffer pH 7.4, Pt by ICP-MS
Method: 50 mM stock solutions of the succinimide complexes in DMF were diluted in phosphate buffer (20 mM, pH 7.4, pre-saturated with n-octanol) to a final concentration of 50 μM drug and 0.1% DMF. The platinum content of these aqueous solutions was measured by ICP–MS (see above). The solutions were mixed 1:1 with n-octanol and shaken on a 360° rotatable rack for 3 h. The solutions were centrifuged for 5 min (860g, RT), the aqueous layers were carefully removed, and their Pt content was measured by ICP–MS. Experiments were performed and measured in duplicates, and averages were used for further calculations. log D7.4 values were calculated by the following equation [drawing 1]

[8] = with 5 eq. AA, read-out: SKOV3 IC50 values + 5 eq. AA, mean
[9] = without AA, read-out: SKOV3 IC50 values, mean
[10] = 48 h incubation, with 5 equiv AA, read-out: CT26 IC50 values +AA, mean ± SD
[11] = 48 h incubation, without AA, read-out: CT26 IC50 values, mean ± SD
[12] = 72 h incubation, with 5 eq. AA, read-out: CT26 IC50 values + 5 eq. AA, mean
[13] = 72 h incubation, without AA, read-out: CT26 IC50 values, mean
[14] = 48 h incubation, with 5 equiv AA, read-out: HCT116 IC50 values +AA, mean ± SD
[15] = 48 h incubation, without AA, read-out: HCT116 IC50 values, mean ± SD
[16] = 72 h incubation, with 5 eq. AA, read-out: HCT116 IC50 values + 5 eq. AA, mean
[17] = 72 h incubation, without AA, read-out: HCT116 IC50 values, mean

SMILES | IC50 (human SKOV3 cancer cells; [8]) [µM] | IC50 (human SKOV3 cancer cells; [9]) [µM] | albumin binding in serum (in words) (albumin) | IC50 [1] [µM] | IC50 [2, 10] [µM] | IC50 [2, 11] [µM] | IC50 [2, 12] [µM] | IC50 [2, 13] [µM] | IC50 [3, 14] [µM] | IC50 [3, 15] [µM] | IC50 [3, 16] [µM] | IC50 [3, 17] [µM] | IC50 [4] [µM] | IC50 [6] [µM] | IC50 (SKOV3 cancer cells) [µM] | log D7.4 [7] | time until complex completely reduced [5] [h] | 1-MDT release after 72 h (SKOV3 cell lysates) [%] | further results
Cn1cc(C[C@@H](NC(=O)[O][Pt]2([O]C(=O)CCCCCN3C(=O)CCC3=O)[O]C(=O)C(=O)[O]2)C(=O)O)c2ccccc21.N[C@@H]1CCCC[C@H]1N [SucEs/IdoCa] | > 100 | > 100 | significant binding to albumin (tR ~4 min) could be observed for any of the compounds | > 100 | 26.7 ± 0.75 | > 100 | 46 | 90.5 | 35.4 ± 6.54 | > 100 | 20.8 | 82.1 | 77.5 | > 100 | 53.1 ± 4.5 | –2.02 | – | – | ratio (IC50 without AA / with AA), CT26 ([2]; 48 h): ≥3; ratio (IC50 without AA / with AA), CT26 ([2]; 72 h): 1.97; ratio (IC50 without AA / with AA), HCT116 ([3]; 48 h): ≥2.8; ratio (IC50 without AA / with AA), HCT116 ([3]; 72 h): 3.94; complex intact after 6 h [5]: 90%; still present as platinum(IV) species after 72 h (SKOV3 cell lysates): ~50%
Cn1cc(C[C@@H]([NH3+])C(=O)[O][Pt]2([O]C(=O)CCCCCN3C(=O)CCC3=O)[O]C(=O)C(=O)[O]2)c2ccccc21.N[C@@H]1CCCC[C@H]1N.O=C([O-])C(F)(F)F [SucEs/IdoEs, (OC-6-44)-[(R)-2-Ammonio-3-(1-methyl-1H-indol-3-yl)propanoato][(1R,2R)-1,2-cyclohexanediamino][6-(2,5-dioxopyrrolidin-1-yl)hexanoato]oxalatoplatinum(IV) Trifluoroacetate] | > 100 | > 100 | significant binding to albumin (tR ~4 min) could be observed for any of the compounds | > 100 | – | 91.5 ± 3.84 | 18.1 | 44.9 | 6.94 ± 0.33 | 22.8 ± 1.15 | 4.89 | 5.45 | 44.2 | 81.7 | 19.4 ± 1.2 | –0.30 | ≤ 2 | ~100 | –
Cn1cc(CC([NH3+])C(=O)[O][Pt]23([O]C(=O)NCCCCCN4C(=O)CCC4=O)([NH]C4CCCCC4[NH]2)[O]C(=O)C(=O)[O]3)c2ccccc21.O=C([O-])C(F)(F)F [SucCa/IdoEs, (OC-6-34)-[(R)-2-Ammonio-3-(1-methyl-1H-indol-3-yl)propanoato][(1R,2R)-1,2-cyclohexanediamino][5-(2,5-dioxo-2,5-dihydro-1H-pyrrolidin-1-yl)pentylcarbamato]oxalatoplatinum(IV) Trifluoroacetate] | > 100 | > 100 | significant binding to albumin (tR ~4 min) could be observed for any of the compounds | > 100 | 10.8 ± 1.04 | 60.1 ± 6.49 | 16.9 | 31.9 | 7.36 ± 1.14 | 26 ± 3.21 | 5.35 | 7.23 | 33.2 | 76.4 | 18.4 ± 3 | –0.16 | ≤ 2 | ~100 | –
